Experimental data taken from patent US20240009174A1, “METHODS FOR DISRUPTING MITOCHONDRIAL UNFOLDED PROTEIN RESPONSE” (Health Research, Inc., priority 2020, published 2024).

How the values were obtained:
LNCaP and PC-3 cells [1] = assay: AMPK and mTOR signaling pathways / autophagy activation; format: cell-based; details: PCa cells
Protocol: FIG. 7. Pharmacological inhibition of HSP60-ClpP interaction induces metabolic stress in PCa cells. (A) LNCaP and PC-3 cells were pre-treated with either rotenone or antimycin-A followed by DCEM1 treatment and mitochondrial ROS was analyzed as described in material and methods (data represented as fold change compared to control). In (A), the bars in each series from left to right are control, DCEM1, Rot+DCEM1, Anti A+DCEM1, Rot, and Anti A (B) ClpP protein was over-expressed in LNCaP and PC-3 cells followed by DCEM1 treatment and mitochondrial ROS was analyzed as described in material and methods (Data represented as fold change compared to control). In (B), the bars in each series from left to right are DMSO and DCEM1. (C) ClpP protein was over-expressed in LNCaP and PC-3 cells followed by DCEM1 treatment and level of poly-ubiquitinated protein was analyzed by western blotting. (D) ClpP protein was over-expressed in LNCaP and PC-3 cells followed by DCEM1 treatment and DEVDase activity was analyzed as described in material and methods (Data represented as fold change compared to control). In (D), the bars in each series from left to right are DMSO and DCEM1. (E) Mitochondrial membrane potential (mitoMP) was analyzed in LNCaP and PC-3 cells treated with DCEM1 as described in material and methods (Data represented as fold change compared to control). In (E), the bars in each series from left to right are DMSO, 5, and 10. (F) ATP level was analyzed in LNCaP and PC-3 cells treated with DCEM1 as described in material and methods (Data represented as fold change compared to control). In (F), the bars in each series from left to right are 0, 5, 10, and 20. (G) Oxygen consumption rate was analyzed in PC-3 cells treated with DCEM1 as described in material and methods and represented as basal and maximal respiration rate; Spare respiratory capacity and ATP production potential. […]
Abrogation of HSP60-ClpP interaction by DCEM1 induces metabolic stress in PCa cells. […] Since ATP depletion/reduction induces autophagy, autophagy activation in PCa cells was analyzed in response to DCEM1 treatment.

LNCaP and PC-3 cells [2] = assay: DEVDase (caspase) activity in cell lysates; format: cell-based; details: 24 and 48 hours
Protocol: FIG. 6. Pharmacological inhibition of HSP60-ClpP interaction induces UPR^mt and PCa cell death. (A) Docking of DCEM1 into apical domain of HSP60. (B) LNCaP and PC-3 cells were treated with DCEM1 for 24 hours and HSP60-ClpP interaction was analyzed by co-immunoprecipitation assay. (C) LNCaP and PC-3 cells were treated with DCEM1 for 24 hours and mitoROS levels were analyzed by flow cytometry using mitoSOX dye. (D) LNCaP and PC-3 cells were treated with DCEM1 for 24 hours and poly-Ub protein levels were analyzed by western blotting. (E) LNCaP and PC-3 cells were treated with DCEM1 for 24 and 48 hours and apoptotic cell populations were analyzed by flow cytometry using Annexin V FITC/PI method as explained in materials and methods. […] (F) LNCaP and PC-3 cells were treated with DCEM1 for 24 and 48 hours and lysates were prepared and analyzed for DEVDase activity using specific peptide substrate. […] (G) LNCaP and PC-3 cells were pre-treated with SKQ1 followed by DCEM1 treatment and analyzed for cell viability by MTT assay. (H) LNCaP and PC-3 cells were treated with either DCEM1 or H2O2 (200 μM) for 24 hours and total DNA were isolated and analyzed for mtDNA damage as described in materials and methods.
FIG. 7. […] (C) ClpP protein was over-expressed in LNCaP and PC-3 cells followed by DCEM1 treatment and level of poly-ubiquitinated protein was analyzed by western blotting. […]

CCOc1cc(CNCc2nc3ccccc3[nH]2)ccc1OCc1cccs1 [DCEM1]
ULK1 phosphorylation (LNCaP and PC-3 cells [1]): enhanced phosphorylation at serine 555 residue and decreased phosphorylation at serine 757 residue | mTOR signaling (LNCaP and PC-3 cells [1]): inhibited mTOR signaling | p-AMPKa levels and LC3B cleavage (LNCaP and PC-3 cells [1]): Robust increase | caspase (DEVDase) activity (LNCaP and PC-3 cells [2]): robust caspase activity
